According to ChEMBL document CHEMBL1138000, “Novel, potent and selective anilinoquinazoline and anilinopyrimidine inhibitors of p38 MAP kinase” (Bioorg Med Chem Lett, 2004):
pIC50: −log10 of the molar value. Values after ≈ are worked out from the molar mass of the structure shown.

Experiments:
[1] = organism: Homo sapiens; assay: Concentration required to inhibit TNF-alpha production was determined in human whole blood; type: functional
[2] = target: Mitogen-activated protein kinase 14 (Homo sapiens, UniProt Q16539)
Description: Inhibitory concentration against alpha mitogen activated protein kinase p38 activity

[3] = target: Epidermal growth factor receptor (Homo sapiens, UniProt P00533); assay: Inhibitory concentration against Epidermal growth factor receptor tyrosine kinase activity
[4] = Volume of distribution at steady state after i.v. dosing at 1 mg/kg; type: ADME, organism-based; design: dose 1 mg/kg, route intravenous; conditions: rat, in vivo, iv, read-out: Distribution
[5] = oral bioavailability after oral dosing at 1 mg/kg; type: ADME, organism-based; conditions: rat, in vivo, read-out: Bioavailabiility
[6] = Clearance after oral dosing at 1 mg/kg; type: ADME, organism-based; design: dose 1 mg/kg, route oral; conditions: rat, in vivo, read-out: Clearance
[7] = Clearance after i.v. dosing at 1 mg/kg; type: ADME, organism-based; design: dose 1 mg/kg, route intravenous; conditions: rat, in vivo, iv
[8] = oral bioavailability after p.o. dosing at 1 mg/kg; conditions: rat, in vivo, read-out: Bioavailabiility
[9] = Volume of distribution at steady state after oral dosing at 1 mg/kg; type: ADME, organism-based; design: dose 1 mg/kg, route oral; conditions: rat, in vivo
[10] = Aqueous solubility
[11] = Log D value at pH 7.4; type: physicochemical; conditions: buffer
[12] = Protein binding was determined in rat plasma; type: ADME, cell-free

Mitogen-activated protein kinase 14, sequence (Q16539 whole entry): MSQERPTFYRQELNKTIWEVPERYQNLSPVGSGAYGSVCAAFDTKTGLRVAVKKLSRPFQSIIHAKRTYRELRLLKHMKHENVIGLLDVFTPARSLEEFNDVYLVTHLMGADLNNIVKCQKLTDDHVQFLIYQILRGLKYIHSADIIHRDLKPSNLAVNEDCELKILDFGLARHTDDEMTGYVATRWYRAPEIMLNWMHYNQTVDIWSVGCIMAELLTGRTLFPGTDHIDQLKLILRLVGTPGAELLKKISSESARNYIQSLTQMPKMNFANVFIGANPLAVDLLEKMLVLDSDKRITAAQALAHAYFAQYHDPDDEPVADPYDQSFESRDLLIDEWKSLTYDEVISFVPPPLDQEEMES
Epidermal growth factor receptor, sequence (P00533 whole entry): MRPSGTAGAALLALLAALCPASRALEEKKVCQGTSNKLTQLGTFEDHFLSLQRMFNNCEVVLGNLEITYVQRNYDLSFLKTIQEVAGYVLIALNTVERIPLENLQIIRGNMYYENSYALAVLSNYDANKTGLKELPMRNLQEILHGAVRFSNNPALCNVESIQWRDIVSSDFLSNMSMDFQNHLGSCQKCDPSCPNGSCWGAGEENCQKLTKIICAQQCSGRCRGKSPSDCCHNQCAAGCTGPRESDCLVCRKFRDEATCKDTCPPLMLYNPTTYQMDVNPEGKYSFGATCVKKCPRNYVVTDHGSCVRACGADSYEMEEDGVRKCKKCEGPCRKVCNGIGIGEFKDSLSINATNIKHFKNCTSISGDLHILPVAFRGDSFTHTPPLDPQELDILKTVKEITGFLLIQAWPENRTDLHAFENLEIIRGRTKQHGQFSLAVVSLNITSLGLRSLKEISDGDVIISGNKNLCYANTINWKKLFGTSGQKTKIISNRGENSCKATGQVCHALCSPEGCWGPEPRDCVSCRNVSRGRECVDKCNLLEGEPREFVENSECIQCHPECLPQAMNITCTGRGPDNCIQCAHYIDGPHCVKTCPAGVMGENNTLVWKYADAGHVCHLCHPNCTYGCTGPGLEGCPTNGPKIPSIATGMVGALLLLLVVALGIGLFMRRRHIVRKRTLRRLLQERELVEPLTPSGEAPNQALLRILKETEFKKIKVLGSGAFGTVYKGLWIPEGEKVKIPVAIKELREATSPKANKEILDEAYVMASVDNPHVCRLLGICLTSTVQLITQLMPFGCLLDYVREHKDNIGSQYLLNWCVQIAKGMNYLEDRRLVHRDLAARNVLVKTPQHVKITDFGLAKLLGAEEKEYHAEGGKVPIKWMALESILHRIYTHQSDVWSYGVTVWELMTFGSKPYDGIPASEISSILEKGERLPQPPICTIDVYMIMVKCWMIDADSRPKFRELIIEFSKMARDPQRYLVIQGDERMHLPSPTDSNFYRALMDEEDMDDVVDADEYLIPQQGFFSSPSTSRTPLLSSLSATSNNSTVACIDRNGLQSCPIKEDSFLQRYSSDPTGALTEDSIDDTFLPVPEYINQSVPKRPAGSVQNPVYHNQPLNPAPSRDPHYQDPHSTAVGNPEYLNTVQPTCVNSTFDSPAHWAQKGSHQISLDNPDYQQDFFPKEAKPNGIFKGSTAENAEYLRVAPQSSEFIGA

| SMILES | pIC50 [1] | pIC50 [2] | pIC50 [3] | other results |
| --- | --- | --- | --- | --- |
| COc1cc2ncnc(Nc3cccc(NC(=O)c4ccccc4)c3F)c2cc1OC | < 4.30 | 6.16 | 5.55 |  |
| C=CCN(C)c1nccc(Nc2cc(NC(=O)c3ccnc(N4CCOCC4)c3)ccc2C)n1 | < 4.30 | 6.96 |  |  |
| COc1cc2ncnc(Nc3cc(NC(=O)c4cccc(N5CCOCC5)c4)ccc3C)c2cc1OC | 4.80 | 8.00 | < 4.48 |  |
| Cc1ccc(NC(=O)c2ccnc(N3CCOCC3)c2)cc1Nc1cc(N2CCCN(C)CC2)ncn1 | < 4.30 | 5.91 |  |  |
| COc1cc2ncnc(Nc3cc(NC(=O)c4ccnc(N5CCOCC5)c4)ccc3C)c2cc1OCCN1CCOCC1 | 5.11 | 7.70 |  |  |
| COc1cc2ncnc(Nc3cc(NC(=O)c4ccccc4)ccc3C)c2cc1OC | 4.68 | 7.15 | < 4.48 |  |
| COc1cc2ncnc(Nc3ccc(Cl)c(NC(=O)c4cccc(N(C)C)c4)c3)c2cc1OC | < 4.30 | 5.77 | 6.00 |  |
| COc1cc2ncnc(Nc3cc(NC(=O)c4ccccc4)c(Cl)cc3F)c2cc1OC | < 4.30 | 6.29 |  |  |
| CCCN1CCC(Oc2nccc(Nc3cc(NC(=O)c4ccnc(N5CCOCC5)c4)ccc3C)n2)CC1 | 6.39 | 7.30 |  |  |
| Cc1ccc(NC(=O)c2ccnc(N3CCOCC3)c2)cc1Nc1ccncn1 | 4.57 | 6.68 |  |  |
| Cc1ccc(NC(=O)c2ccnc(N3CCOCC3)c2)cc1Nc1ccnc(OC2CCN(C)CC2)n1 | 6.30 | 7.40 |  |  |
| COc1cc2ncnc(Nc3cc(NC(=O)c4ccccc4)ccc3Cl)c2cc1OC | < 4.30 | 7.10 | 4.96 |  |
| Cc1ccc(NC(=O)c2ccnc(N3CCOCC3)c2)cc1Nc1ccnc(Cl)n1 | 4.96 | 8.00 |  |  |
| Cc1ccc(NC(=O)c2ccnc(N3CCOCC3)c2)cc1Nc1cc(Cl)ncn1 | < 4.30 | 6.62 |  |  |
| COc1cc2ncnc(Nc3cc(NC(=O)c4ccccc4)c(F)cc3F)c2cc1OC | < 4.30 | 7.30 | 6.31 |  |
| Cc1ccc(NC(=O)c2ccnc(N3CCOCC3)c2)cc1Nc1ccnc(OCCCN(C)C)n1 | 5.49 | 7.52 |  |  |
| COc1cc2ncnc(Nc3ccc(C)c(NC(=O)c4ccccc4)c3)c2cc1OC | < 4.30 | 5.68 | 5.49 |  |
| COc1cc2ncnc(Nc3cccc(NC(=O)c4ccccc4)c3)c2cc1OC | < 4.30 | 6.85 | 5.25 |  |

| SMILES | pIC50 [1] | pIC50 [2] | pIC50 [3] | other results |
| --- | --- | --- | --- | --- |
| Cc1ccc(NC(=O)c2ccnc(N3CCOCC3)c2)cc1Nc1cc(NCCCN2CCCC2)ncn1 | < 4.30 | 6.35 |  |  |
| COc1cc2ncnc(Nc3cc(NC(=O)c4cccc(N(C)C)c4)ccc3Cl)c2cc1OC | < 4.30 | 7.40 | 4.54 |  |
| CSc1nccc(Nc2cc(NC(=O)c3cc(F)cc(N4CCOCC4)c3)ccc2C)n1 | 5.47 | 8.00 |  | Vd [4]: 0.8 L/kg; bioavailability [5]: 26%; CL/F [6]: 25 mL/min/kg; clearance [7]: 25 mL/min/kg; bioavailability [8]: 26%; Distribution [9]: 0.8 L/kg |
| COc1cc2ncnc(Nc3cc(NC(=O)c4ccnc(N5CCOCC5)c4)ccc3C)c2cc1OCCN(C)C | 5.16 | 7.52 |  |  |
| CCN(CC)CCCNc1cc(Nc2cc(NC(=O)c3ccnc(N4CCOCC4)c3)ccc2C)ncn1 | 4.64 | 6.55 |  |  |
| COc1cc2ncnc(Nc3cc(NC(=O)c4ccnc(N5CCOCC5)c4)ccc3C)c2cc1OCCN1CCCCC1 | 5.34 | 7.30 |  |  |
| Cc1ccc(NC(=O)c2ccnc(N3CCOCC3)c2)cc1Nc1ccnc(NCCCN2CCOCC2)n1 | < 4.30 | 7.05 |  |  |
| COc1cc2ncnc(Nc3ccc(Cl)c(NC(=O)c4ccccc4)c3)c2cc1OC | < 4.30 | 6.21 | 5.66 |  |
| CCCN1CCC(Oc2nccc(Nc3cc(NC(=O)c4cccc(N5CCOCC5)c4)ccc3C)n2)CC1 | 6.52 | 7.40 |  |  |
| Cc1ccc(NC(=O)c2ccnc(N3CCOCC3)c2)cc1Nc1ccnc(OCC(C)(C)CN(C)C)n1 | 5.43 | 7.15 |  |  |
| COc1cc2ncnc(Nc3cc(NC(=O)c4ccnc(N5CCOCC5)c4)ccc3C)c2cc1OCCN(C(C)C)C(C)C | 5.46 | 7.30 |  | solubility [10]: 240 µM (≈ 147 µg/mL); logD [11]: 3.5; Binding [12]: 83% |
| COc1cc2ncnc(Nc3cc(NC(=O)c4cccc(N(C)C)c4)ccc3C)c2cc1OC | 4.46 | 7.52 | < 4.48 |  |
| Cc1ccc(NC(=O)c2ccnc(N3CCOCC3)c2)cc1Nc1ccnc(OCC2CCCN(C)C2)n1 (configuration not stated) | 5.96 | 7.52 |  |  |
| COc1cc2ncnc(Nc3cccc(NC(=O)c4cccc(N(C)C)c4)c3)c2cc1OC | < 4.30 | 6.68 | < 4.48 |  |
| Cc1ccc(NC(=O)c2ccnc(N3CCOCC3)c2)cc1Nc1ccnc(N(C)C2CCN(C)CC2)n1 | 5.28 | 7.10 |  |  |
| Cc1ccc(NC(=O)c2ccnc(N3CCOCC3)c2)cc1Nc1ccnc(NCCCN2CCCC2)n1 | 4.80 | 7.30 |  |  |
| C[S+]([O-])c1ccc(-c2nc(-c3ccc(F)cc3)c(-c3ccncc3)[nH]2)cc1 (configuration not stated) [SB-203580] | 5.70 |  |  |  |
| COc1cc2ncnc(Nc3cccc(Cl)c3)c2cc1OC [TYRPHOSTIN AG-1478] | < 4.30 | 6.25 |  |  |
